Assay results from US20140249214A1 (AMARIN PHARMACEUTICALS IRELAND LIMITED, priority 2013, published 2014).

What was measured:
[1] = system: international normalized ratio (INR); assay: Phase 1 drug-drug interaction study: anticoagulation pharmacodynamics of warfarin (INR); type: in vivo, healthy subjects; design: AUCINR Mean (SD) / AUCINR Median / AUCINR LSGM: unit not given beside the values
Description: Primary anticoagulation pharmacodynamic endpoints were maximum international normalized ratio (INRmax) and plasma international normalized ratio time curve (AUCINR).

[2] = Phase 1 open-label crossover drug-drug interaction study: pharmacokinetics of warfarin with or without ethyl eicosapentaenoate; conditions: for AUC0-inf LSGM (least squares geometric mean) / Cmax LSGM (least squares geometric mean): W = warfarin (25 mg) administered alone; for effect of co-administration with ethyl eicosapentaenoate on Tmax: compared with Tmax when administered alone; for AUC0-inf / AUC0-last / Cmax / Kel / Tmax: plasma
Description: Twenty-five out of the twenty-six enrolled subjects completed the study. One enrolled subject withdrew consent and disconsinuted prematurely. […] On each of Day 8 through Day 35, all subjects received about 4 g of ethyl eicosapentaenoate (oral) as described herein.

[3] = least squares geometric mean, mixed models
[4] = warfarin 25 mg + ethyl eicosapentaenoate 4 g

SMILES | AUC0-inf LSGM (least squares geometric mean) [2] | Cmax LSGM (least squares geometric mean) [2] [ng/mL] | effect of co-administration with ethyl eicosapentaenoate on Tmax [2] | AUC0-inf ([2]; oral warfarin 25 mg alone) | AUC0-last ([2]; oral warfarin 25 mg alone) | Cmax ([2]; oral warfarin 25 mg alone) | Tmax ([2]; oral warfarin 25 mg alone) | AUC0-inf [2, 4] | AUC0-last [2, 4] | Cmax [2, 4] | Kel [2, 4] | Tmax [2, 4] | further results
CC(=O)CC(c1ccccc1)c1c(O)c2ccccc2oc1=O (stereo not drawn) [Warfarin, warfarin] | – | – | – | – | – | – | – | – | – | – | – | – | AUCINR, concomitant vs warfarin alone ([1]; in vivo): similar; INRmax, concomitant vs warfarin alone ([1]; in vivo): similar; AUCINR LSGM [1, 3]: 216.2; INRmax LSGM [1, 3]: 1.80; Median time to INRmax (TINRmax), co-administered vs warfarin alone ([1]; p=0.026): significantly lower; TINRmax Median ([1]; time to INRmax, warfarin 25 mg, EPA 4 g): 48.0 h; AUCINR Mean (SD) ([1]; warfarin 25 mg, EPA 4 g): 217.8 (27.7); AUCINR Median ([1]; warfarin 25 mg, EPA 4 g): 213.4; INRmax Mean (SD) ([1]; warfarin 25 mg, EPA 4 g): 1.86 (0.48); INRmax Median ([1]; warfarin 25 mg, EPA 4 g): 1.74
CC(=O)C[C@@H](c1ccccc1)c1c(O)c2ccccc2oc1=O [S-Warfarin, S-warfarin] | 58,344 ng · h/mL | 1715.9 | did not significantly affect | 60,216 (15,009) ng · h/mL | 59,253 (15,429) ng · h/mL | 1836 (729) ng/mL | 1.0 (0.5, 9.0) h | 60,253 (16,204) ng · h/mL | 59,134 (16,451) ng · h/mL | 1973 (616) ng/mL | 0.020 (0.005) 1/h | 1.0 (0.5, 1.5) h | Kel ([2]; oral warfarin 25 mg alone): 0.020 (0.005) 1/h
CC(=O)C[C@H](c1ccccc1)c1c(O)c2ccccc2oc1=O [R-Warfarin, R-warfarin] | 80,486 ng · h/mL | 1659.6 | did not significantly affect | 82,620 (19,725) ng · h/mL | 77,539 (17,374) ng · h/mL | 1766 (673) ng/mL | 1.0 (0.5, 9.0) h | 82,460 (22,798) ng · h/mL | 77,117 (19,505) ng · h/mL | 1865 (592) ng/mL | 0.016 (0.005) 1/h | 1.0 (0.5, 1.5) h | –
CC/C=C\C/C=C\C/C=C\C/C=C\C/C=C\CCCC(=O)OCC [ethyl eicosapentaenoate, all-cis eicosa-5,8,11,14,17-pentaenoic acid ethyl ester] | – | – | – | – | – | – | – | – | – | – | – | – | anticoagulation pharmacodynamic effects compared to warfarin alone ([1]; in vivo): did not have an effect
